Reference: patent US9364551B2, “Light-enabled drug delivery” (Virginia Commonwealth University, priority 2011, dated 2016)
Counter-ions that a name gives are not always drawn. Like-named read-outs stand apart in the source and are kept apart here. Where no end group is shown, it is not given here. [ ]: non-standard residue; d: D form. bis‑iodoacetamido azobenzene = bis-iodoacetamido azobenzene crosslinker; Aib = CC(C)(N)C(=O)O

What was measured:
[1] = system: JH-EsoAd1 cells; assay: Concentration dependent cell viability (MTT assay); type: cell-based
Experimental: (§1) The Esophageal cancer cell line (JH-EsoAd1) was cultured at 37° C. and in a humidified atmosphere of 5% CO2 in RPMI 1640 medium supplemented with 10% fetal bovine serum (FBS). For 96 well plate experiments, the JH-EsoAd1 cells were seeded at 4450 cells/well in 100 uL of media in 96 well plates; experiments were carried out one day after seeding. MTT assays were analyzed using a Bio-Tex μQuant plate reader at 562 nm. FACS was performed BD FACS Aria II using BD FACS Diva software at the VCU Flow Cytometry Core Facility. A minimum of 20,000 cells within the gated region were analyzed. Confocal microscopy images were acquired at room temperature with a Leica confocal laser scanning microscope.
(§2) JH-EsoAd1 cells were treated with media alone, media supplemented with EDANS (20 μM), or media supplemented with Dox-EDANS (9) (20 μM) in a 96 well clear-bottom, opaque plate. Cells were exposed to light (9 mW/cm^2) for various times (0-40 min) regulated by an aluminum foil mask. During the experiment the plate was kept in ice to reduce the heating by the UV lamp. After the lamp was turned off, the plate was covered with foil and placed at room temperature for an additional 80 min. The media was removed, and the cells were thoroughly washed with media (3×); then 200 μL of fresh media was added to each well. The plates were incubated for 72 hours at 37° C., following which the media was removed and 100 µL of MTT (2 mg/ml) in phosphate buffered saline (PBS) was added to each well. After 3 hours, the MTT solution was removed and replaced with 100 μL of DMSO. The absorbance at 562 nm was analyzed via a plate reader.
JH-EsoAd1 cells were treated with media supplemented with various concentrations of doxorubicin (0-6.4 μM) or Dox-EDANS (9) (0-16 μM) in a 96 well clear-bottom, opaque plate. Control wells were covered with aluminum foil while the remaining wells were exposed UV light (9 mW/cm^2) for 20 min. The plate was kept in ice during light exposure in order to minimize the heating. After irradiation, the plate was kept at it in the dark for another 100 minutes. […]

[2] = system: JH-EsoAd1 cells; assay: Confocal microscopic analysis of permeability; type: cell-based; details: 10 μM, light-treated cells vs dark
Experimental: as §1
JH-EsoAd1 cells were seeded at 30,000 cells/well on 4 well glass chamber slides, and were treated as above (Flow cytometry analysis). The cells were treated with media alone or media supplemented with 10 μM of EDANS-Dox (6). The plate was placed on ice, and the light treated cells were exposed to UV light (9 mW/cm^2) for 20 minutes. Following the light exposure the plates were kept at room temperature for 100 minutes. The cells were washed extensively with PBS and fixed for 15 min at 37° C. with 3% paraformaldehyde in PBS. Slides were rinsed, dried and mounted under coverslips using Vectashield mounting media (Vector Laboratories, Inc.).

[3] = system: JH-EsoAd1 cells; assay: Illumination time-dependent toxicity (MTT assay); type: cell-based
Experimental: as §1
as §2, with “The plates were incubated for 72 hours at 37° C., following which the media was removed and 100 µL of MTT (2 mg/ml) in phosphate buffered saline (PBS) was added to each well. After 3 hours, the MTT solution was removed and replaced with 100 μL of DMSO.” left out

[4] = Photolytic release of doxorubicin from drug conjugate (RP-HPLC); type: physicochemical; details: PBS buffer, UV light 365 nm (9.0 mW/cm^2), 0.5-30 min
Experimental: The photolytic release of doxorubicin from the drug conjugate was analyzed using HPLC. The drug conjugate was dissolved in PBS buffer and was exposed to UV light at 365 nm (9.0 mW/cm^2). Aliquots of the reaction mixture were collected at various times and were analyzed on RP-HPLC.
A solution (0.065 mM in 1 mL) of compound 6 in PBS was placed in a 60×15 mm well plastic dish placed on ice. The solution was irradiated and 70 μL was removed at various time points (0.5, 1, 2, 4, 8, 15, 20, and 30 minutes). Each assay was analyzed on RP-HPLC using isocratic elution of 20% organic eluent (0.1% TFA in acetonitrile) for 5 minutes and then using gradient elution from 20% to 70% for 30 minutes and was monitored at λabs=480 nm. (See FIG. 14).

[5] = HPLC monitoring of azobenzene cis to trans thermal relaxation after illumination; type: physicochemical; details: fit to exponential decay
Description: We also monitored the switching of the azobenzene by HPLC, since we were able to separate both the cis and trans peptide isomers (FIG. 19B). After illumination the cis isomer reverted to the trans isomer over time. […] The half-life is in line with measurements of similar peptides, but the % cis is lower than the typical 80-95%. Use of a filter to eliminate the longer wavelength light (our light source has a spike of intensity at 405 nm which can promote cis to trans reversion) would enhance photoswitching upon irradiation.

[6] = CD spectra of photoswitching; type: physicochemical

Question: For `COc1cccc2c1C(=O)c1c(O)c3c(c(O)c1C2=O)C[C@@](O)(C(=O)CO)C[C@@H]3O[C@H]1C[C@H](N)[C@H](O)[C@H](C)O1` [Dox, Doxorubicin Hydrochloride, reference compound], which IC50 ([1]; Dox alone, read-out: IC50 of Dox alone with the JH-EsoAd1 cells) is on record?
Answer: Its IC50 is 1 ± 0.4 µM.

Question: Which “Dox fluorescence in the nucleus (confocal)” value [2] does the source give for `COc1cc(C(C)OC(=O)NC2C[C@H](OC3C[C@](O)(C(=O)CO)Cc4c(O)c5c(c(O)c43)C(=O)c3c(OC)cccc3C5=O)C[C@@H](C)[C@H]2O)c([N+](=O)[O-])cc1OCCCC(=O)NCc1cn(-c2ccc(C(=O)NCCNc3cccc4c(S(=O)(=O)O)cccc34)cc2)nn1` (stereo partly shown) [EDANS-Dox, Photocaged-Cell Impermeable Dox. Conjugate] here?
Answer: The value was “only light-treated cells show significant Dox fluorescence in the nucleus”.

Question: What about the IC50 ([1]; 20 min, illumination 365 nm, 9.0 mW/cm^2, 20 min, read-out: IC50, cytotoxicity upon illumination) of the same compound?
Answer: Its IC50 is 1.6 ± 1 µM.

Question: And the “toxicity to the cells in the dark” value ([1]; in the dark, at the highest value tested (16 µM))?
Answer: The value was “not toxic”.

Question: What about the “Survival of cells in the dark” value ([3]; in the dark) of the same compound?
Answer: Its value is “equivalent to controls with no drug added”.

Question: What about the “Cell survival with increased illumination” value ([3]; light 9 mW/cm^2, 0-40 min) of the same compound?
Answer: Its value is “decreased survival”.

Question: What about the “photolytic release of doxorubicin” value [4] of the same compound?
Answer: Its value is “time-depended drug release in the presence of light”.

Question: For “*CRACARVXAACRAAARQ (RACARV[Aib]AACRAAARQ; linker (positions not given here) via bis‑iodoacetamido azobenzene; not fully specified (N-terminus, bridges); also: bis-iodoacetamido azobenzene crosslink, Cys pair not given here) [Peptide 1, arginine-rich photoswitchable peptide, cysteines crosslinked with bis-iodoacetamido azobenzene; X=2-aminoisobutyric acid]”, which “percentage of cis isomer upon illumination” value [5] is on record?
Answer: The value was 55%.

Question: What about the “conformation upon irradiation (CD)” value ([6]; 370 nm light, 25° C., illumination for 5 min) of the same compound?
Answer: Its value is “more α-helical”.

Question: And the “conformation after removal of light (CD)” value ([6]; after 30 minutes in the dark)?
Answer: The value was “reverted mostly back to the more random coiled state”.
